The text below walks through data of patent publication US4003915A, “Tricyclic imines” (Hoffmann-La Roche Inc., priority 1970, dated 1977).

One may read the LD50 as the dose at which mortality reaches 50%. A higher LD50 goes with lower toxicity.

One data set can be described thus: diuretic activity. The conditions noted are these: in words.
A further data set is described as follows: anticholinergic activity. The conditions noted are these: in words.
A further data set in a line: antidepressant activity. The conditions noted are these: in words.
Another data set is described as follows: anti-Parkinson activity. Particulars: in words.
Data set [1] in a line: LD50 in mice on oral administration (toxicity). Particulars: mouse, in vivo.
The next data set is described as follows: antitussive activity. The conditions noted are these: in words.
Data set [2] is described as follows: anticonvulsant properties (no test described). Particulars: in words.

As to `CCN(CC)CCN=C1c2ccccc2CCc2c(Cl)cccc21` [1-chloro-N-(2-diethylamino-ethyl)-10,11-dihydro-5H-dibenzo[a,d]cyclohepten-5-imine], the diuretic activity result in the data set “diuretic activity” was “strong”.

Turning to `CN(C)CCN=C1c2ccccc2CCc2ccc(Cl)cc21` [3-chloro-N-(2-dimethylamino-ethyl)-10,11-dihydro5H-dibenzo[a,d]cyclohepten-5-imine], the anticholinergic activity result in “anticholinergic activity” is “strong”. The antidepressant activity result in the data set “antidepressant activity” was “strong”. In addition, the “activity against Parkinsonism” value in the data set “anti-Parkinson activity” is listed as “very active”.

Regarding `CN(C)CCN=C1c2ccccc2CCc2c(Cl)cccc21` [1-chloro-N-(2-dimethylamino-ethyl)-10,11-dihydro-5H-dibenzo[a,d]cyclohepten-5-imine], in the data set “anticholinergic activity”, the anticholinergic activity result is recorded as “very weak”. For the same compound, the antidepressant activity result in the data set “antidepressant activity” is “acts principally as an antidepressant”. This compound came in with an LD50 in data set [1] of roughly 750 mg/kg.

As for `CN(C)CCN=C1c2ccccc2CCc2ccccc21` [N-(2-dimethylamino-ethyl)-10,11-dihydro-5H-dibenzo[a,d]cyclohepten-5-imine], the “central and peripheral anticholinergic activity” value in the data set “anticholinergic activity” (central and peripheral) was “strong”. Also, the “activity against Parkinsonism” value in the data set “anti-Parkinson activity” is “very active”.

`CCN(CC)CCN=C1c2ccccc2CCc2ccc(Cl)cc21` [3-chloro-N-(2-diethylamino-ethyl)-10,11-dihydro-5H-dibenzo[a,d]cyclohepten-5-imine]: the antitussive activity result in “antitussive activity” is recorded as “strong”.

In the case of `CN(C)CCN=C1c2ccccc2CCc2c(Br)cccc21` [1-bromo-N-(2-dimethylamino-ethyl)-10,11-dihydro-5H-dibenzo[a,d]cyclohepten-5-imine], the anticonvulsant properties result in data set [2] is “strong”. In data set [1], this compound returned an LD50 of roughly 750 mg/kg.
